Where only a bound is given, the exact number is not on record here.

One data set concerns ICR mice. Briefly: Rotarod test (motor coordination). Conditions: oral, dose 5 mg/kg, rotarod 1 hour after administration. In kind it is in vivo, mouse. The protocol: This test is performed to evaluate the effect of the compound on the motor coordination. In this test example, the example compounds shown in Table 4 below were used as test compounds. Male ICR mice (Japan SLC, Inc., 5-6 weeks, 8 per group) were trained to remain on a fixed speed (15 rpm) rotating rod of rotarod apparatus (Muromachi Kikai Co., Ltd.) for 2 minutes. […] After 1 hour of oral administration, the mice were again placed on the rod accelerated from 4 rpm to 40 rpm over 5 minutes and the latency to fall off the rod was recorded for 200 seconds. The falling latency of the compound administration group was calculated as a relative value relative to the average value of the falling latency in the solvent administration group. Here, a coordination disorder of 25% or less was expressed as “A”, and a coordination disorder of more than 25% and 50% or less was expressed as “B”.
(Falling from the rotarod earlier than controls is read as motor impairment.)
With `Cc1cccc(Oc2ncc(-c3ccc4nccn4c3)cn2)c1` [Example 161], the Motor dysfunction result was “A (a coordination disorder of 25% or less)”.

Regarding `Nc1ccc(-c2cnc(Oc3ccccc3)nc2)cn1` [Example 36, 5-(2-Phenoxypyrimidin-5-Yl)Pyridin-2-Amine], the Motor dysfunction entry is recorded as “A (a coordination disorder of 25% or less)”.

Still in this data set, the particulars now being: oral, dose 10 mg/kg, rotarod 1 hour after administration.
On to `COc1ccc(-c2cnc(Oc3ccccc3F)nc2)nn1` [Example 3], for which the Motor dysfunction entry is on record as “A (a coordination disorder of 25% or less)”.

Staying with this data set, now noted: oral, dose 30 mg/kg, rotarod 1 hour after administration.
Turning to `O=C1CCN(c2ccc(Oc3cccc(C(F)(F)F)c3)cc2)C(=O)N1` [Example 307], the Motor dysfunction result is “A (a coordination disorder of 25% or less)”.

Regarding `FC(F)(F)c1cn2cc(-c3cnc(Oc4ccccc4)nc3)ccc2n1` [Example 214], the Motor dysfunction entry is on record as “A (a coordination disorder of 25% or less)”.

Take `O=C1CCN(c2ccc(Oc3cccc(OC(F)(F)F)c3)cc2)C(=O)N1` [Example 306]: the Motor dysfunction result is “A (a coordination disorder of 25% or less)”.

A further data set has as its system DBA/2 mice. Nature of the data set: Audiogenic seizure model. In kind it is in vivo. Conditions: Mus musculus, po, 1 h, read-out: Seizure suppression. The gist of the method:
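Male and female DBA/2 mice (3 weeks old, 8/group) dosed orally at 30 mg/kg in 5% gum arabic; 1 h later exposed to 12.6 kHz, 100-110 dB tone for 1 min or until tonic seizure. Maximum seizure score (0–4) recorded; suppression rate graded A (≥90%), B (70–<90%), C (50–<70%).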
Take `Fc1ccc(Oc2ncc(-c3ccc(C(F)(F)F)nn3)cn2)cc1` [Example 57]: the inhibition in vivo at 30 mg/kg was over 90%.

The same data set, now with this note: Mus musculus; DBA/2 mice, oral, dose 5 mg/kg, auditory stimulation 1 hour after administration; read-out: Seizure suppression.
`COc1ccc(-c2cnc(Oc3ccccc3F)nc2)nn1` [Example 3]: the inhibition in vivo at 5 mg/kg was over 90%.

Consider `Cc1cccc(Oc2ncc(-c3ccc4nccn4c3)cn2)c1` [Example 161], for which the inhibition in vivo at 5 mg/kg was over 90%.

With `Nc1ccc(-c2cnc(Oc3ccccc3)nc2)cn1` [Example 36, 5-(2-Phenoxypyrimidin-5-Yl)Pyridin-2-Amine], the inhibition in vivo at 5 mg/kg is over 90%.

With `Nc1ccc(-c2cnc(Oc3ccccc3F)nc2)cn1` [Example 45], the inhibition in vivo at 5 mg/kg was over 90%.

For the molecule `Fc1ccc(Oc2ncc(-c3ccc4nccn4c3)cn2)c(F)c1` [Example 165], the inhibition in vivo at 5 mg/kg was over 90%.

As to `O=C1Cc2cc(-c3cnc(Oc4ccccc4F)nc3)ccc2N1` [Example 264], the inhibition in vivo at 5 mg/kg was over 90%.

In the case of `Fc1ccc(Oc2ncc(-c3ccc4nccn4c3)cn2)cc1F` [Example 168], the inhibition in vivo at 5 mg/kg is over 90%.

Turning to `c1ccc(Oc2ncc(-c3ccncc3)cn2)cc1` [Example 9], the inhibition in vivo at 5 mg/kg was over 90%.

The same data set, now with this note: Mus musculus; DBA/2 mice, oral, dose 30 mg/kg, auditory stimulation 1 hour after administration; read-out: Seizure suppression.
Consider `O=C1CCN(c2ccc(Oc3cccc(C(F)(F)F)c3)cc2)C(=O)N1` [Example 307], for which the inhibition in vivo at 30 mg/kg fell in the range of 70 to 90%.

As to `FC(F)(F)c1cn2cc(-c3cnc(Oc4ccccc4)nc3)ccc2n1` [Example 214], the inhibition in vivo at 30 mg/kg was over 90%.

`Cc1ncccc1-c1cnc(Oc2ccc(F)cc2)nc1` [Example 49]: the inhibition in vivo at 30 mg/kg is over 90%.

For the molecule `FC(F)(F)Oc1cccc(Oc2ncc(-c3ccc(C(F)(F)F)nn3)cn2)c1` [Example 67], the inhibition in vivo at 30 mg/kg was over 90%.

In the case of `O=c1ccn(-c2ccc(Oc3ccccc3)cc2)c(=O)[nH]1` [Example 322, 1-(4-Phenoxyphenyl)Pyrimidine-2,4 (1H,3H)-Dione], the inhibition in vivo at 30 mg/kg lay within 50 to 70%.

On to `O=c1ccc(-c2cnc(Oc3cccc(F)c3F)nc2)n[nH]1` [Example 110], for which the inhibition in vivo at 30 mg/kg is over 90%.

Consider `Fc1ccccc1Oc1ncc(-c2ccn3ccnc3c2)cn1` [Example 130], for which the inhibition in vivo at 30 mg/kg is over 90%.

`COc1nc(Oc2ccccc2)ncc1-c1ccc2nncn2c1` [Example 159]: the inhibition in vivo at 30 mg/kg is over 90%.

With `O=c1[nH]nccc1-c1cnc(Oc2cccc(F)c2)nc1` [Example 115], the inhibition in vivo at 30 mg/kg was over 90%.

On to `O=C1CCN(c2ccc(OC(F)(F)F)cc2)C(=O)N1` [Example 319], for which the inhibition in vivo at 30 mg/kg was in the range of 50 to 70%.

For the molecule `c1ccc(Oc2ncc(-c3cnc4nccn4c3)cn2)cc1` [Example 128], the inhibition in vivo at 30 mg/kg is over 90%.

`COc1ccc(-c2cnc(Oc3cccc(C)c3)nc2)cn1` [Example 29]: the inhibition in vivo at 30 mg/kg is over 90%.

Turning to `O=c1cc(-c2cnc(Oc3ccccc3)nc2)cn[nH]1` [Example 116], the inhibition in vivo at 30 mg/kg was over 90%.

In the case of `Cc1cnc2ccc(-c3cnc(Oc4cccc(F)c4)nc3)cn12` [Example 192], the inhibition in vivo at 30 mg/kg was over 90%.

Turning to `Nc1nccc2c(-c3cnc(Oc4ccccc4)nc3)cccc12` [Example 261], the inhibition in vivo at 30 mg/kg was over 90%.

As for `O=C1CCN(c2ccc(Oc3cccnc3)cc2)C(=O)N1` [Example 318], the inhibition in vivo at 30 mg/kg fell in the range of 50 to 70%.

With `Cc1c(-c2cnc(Oc3ccccc3F)nc2)ccc2nccn12` [Example 199], the inhibition in vivo at 30 mg/kg was over 90%.

As to `Nc1ccc(-c2cnc(Oc3cccc(F)c3F)nc2)cn1` [Example 87], the inhibition in vivo at 30 mg/kg was over 90%.

For the molecule `Fc1cccc(Oc2ncc(-c3ccn4nccc4c3)cn2)c1` [Example 196], the inhibition in vivo at 30 mg/kg was over 90%.

Regarding `Fc1cccc(Oc2ncc(-c3ccc4cncn4c3)cn2)c1` [Example 157], the inhibition in vivo at 30 mg/kg is over 90%.

Take `Fc1ccccc1Oc1ncc(-c2ccn3nncc3c2)cn1` [Example 185]: the inhibition in vivo at 30 mg/kg is over 90%.

Consider `O=C1Cc2ccc(-c3cnc(Oc4ccccc4F)nc3)cc2N1` [Example 269], for which the inhibition in vivo at 30 mg/kg is over 90%.

On to `O=C1CCOCCN1c1cnc(Oc2cccc(F)c2)nc1` [Example 233], for which the inhibition in vivo at 30 mg/kg is over 90%.

Consider `Fc1cccc(Oc2ncc(-c3ccc4cnc(C(F)(F)F)n4c3)cn2)c1` [Example 287], for which the inhibition in vivo at 30 mg/kg was over 90%.

For the molecule `Nc1ccc(-c2cnc(Oc3cccc(F)c3)nc2)cn1` [Example 43], the inhibition in vivo at 30 mg/kg is over 90%.

Take `Cc1cccc(Oc2ncc(-c3ccc(C)nc3)cn2)c1` [Example 28]: the inhibition in vivo at 30 mg/kg is over 90%.

In the case of `O=C1Cc2cc(-c3cnc(Oc4ccccc4F)nc3)ccc2N1` [Example 264], the inhibition in vivo at 30 mg/kg was over 90%.

`Fc1cccc(Oc2ncc(-c3ccc4nccn4n3)cn2)c1` [Example 125]: the inhibition in vivo at 30 mg/kg was over 90%.

`O=c1ccn(-c2ccc(Oc3ccccc3)nn2)c(=O)[nH]1` [Example 346, 1-(6-Phenoxypyridazin-3-Yl)Pyrimidine-2,4 (1H,3H)-Dione]: the inhibition in vivo at 30 mg/kg is 50 to 70%.

With `Fc1cccc(Oc2ncc(-c3cnc4ncnn4c3)cn2)c1` [Example 189], the inhibition in vivo at 30 mg/kg was over 90%.

With `O=C1CCN(c2cccc(Oc3ccc(F)cc3)c2)C(=O)N1` [Example 315], the inhibition in vivo at 30 mg/kg lay within 70 to 90%.

As for `COc1nc(Oc2ccccc2)ncc1-c1ccc2nccn2n1` [Example 160], the inhibition in vivo at 30 mg/kg was over 90%.

Consider `NC1=NC2C=CC(c3cnc(Oc4ccccc4)nc3)=CC2=N1` (stereo not shown) [Example 147], for which the inhibition in vivo at 30 mg/kg is over 90%.

For `O=C1CCN(c2ccc(Cc3cccc(C(F)(F)F)c3)cc2)C(=O)N1` [Example 341], the inhibition in vivo at 30 mg/kg is 50 to 70%.

Turning to `O=C1CCC(c2cnc(Oc3cccc(C(F)(F)F)c3)nc2)=NN1` [Example 100], the inhibition in vivo at 30 mg/kg is over 90%.

Consider `O=C1CCN(c2ccc(Oc3cc(F)cc(F)c3)cc2)C(=O)N1` [Example 344], for which the inhibition in vivo at 30 mg/kg fell in the range of 50 to 70%.

As for `Cc1ccc(-c2cnc(Oc3cccc(F)c3)nc2)nn1` [Example 21], the inhibition in vivo at 30 mg/kg was over 90%.

With `COc1ccc(-c2cnc(Oc3cccc(Cl)c3)nc2)nn1` [Example 71], the inhibition in vivo at 30 mg/kg is over 90%.

Turning to `O=C1CCN(c2ccc(Oc3cccc(F)n3)cc2)C(=O)N1` [Example 321, 1-[4-(6-Fluoropyridin-2-Yloxy)Phenyl]Dihydropyrimidine-2,4 (1H,3H)-Dione], the inhibition in vivo at 30 mg/kg is 50 to 70%.

Take `N#Cc1cccc(Oc2ncc(-c3ccc(=O)[nH]n3)cn2)c1` [Example 112]: the inhibition in vivo at 30 mg/kg was over 90%.

Consider `FC(F)(F)c1cccc(Oc2ncc(-c3cccnc3)cn2)c1` [Example 14], for which the inhibition in vivo at 30 mg/kg is over 90%.

Regarding `Cn1ccc2cc(-c3cnc(Oc4ccccc4)nc3)ccc21` [Example 260], the inhibition in vivo at 30 mg/kg is over 90%.

`COc1nc(Oc2ccccc2)ncc1-c1cccc2c1CC(=O)N2` [Example 273]: the inhibition in vivo at 30 mg/kg is over 90%.

Values taken from patent US12391674B2, “Heterocyclic compounds for the treatment of epilepsy” (OTSUKA PHARMACEUTICAL CO., LTD., priority 2018, dated 2025).
